Laboratory results taken from ChEMBL document CHEMBL5257057.
The source made the active and inactive calls. No cut-off for these calls is given here.

Legend:
[1] = target: Tyrosine-protein kinase BTK (Homo sapiens) (UniProt Q06187); assay: Inhibition of BTK phosphorylation in human JeKo-1 cells at 0.01 to 10 uM incubated for 2 hrs by Western blot analysis; assay type: cell-based; settings: dose 0.01-10 µM
[2] = target: Tyrosine-protein kinase BTK (Homo sapiens) (UniProt Q06187); assay: Inhibition of BTK (unknown origin) at 1 uM relative to control
[3] = target: Tyrosine-protein kinase Blk (Homo sapiens) (UniProt P51451); assay: Inhibition of BLK (unknown origin) at 1 uM relative to control
[4] = target: T1, Tyrosine-protein kinase TXK (Homo sapiens) (UniProt P42681); assay: Inhibition of TXK (unknown origin) at 1 uM relative to control
T1 sequence (whole entry): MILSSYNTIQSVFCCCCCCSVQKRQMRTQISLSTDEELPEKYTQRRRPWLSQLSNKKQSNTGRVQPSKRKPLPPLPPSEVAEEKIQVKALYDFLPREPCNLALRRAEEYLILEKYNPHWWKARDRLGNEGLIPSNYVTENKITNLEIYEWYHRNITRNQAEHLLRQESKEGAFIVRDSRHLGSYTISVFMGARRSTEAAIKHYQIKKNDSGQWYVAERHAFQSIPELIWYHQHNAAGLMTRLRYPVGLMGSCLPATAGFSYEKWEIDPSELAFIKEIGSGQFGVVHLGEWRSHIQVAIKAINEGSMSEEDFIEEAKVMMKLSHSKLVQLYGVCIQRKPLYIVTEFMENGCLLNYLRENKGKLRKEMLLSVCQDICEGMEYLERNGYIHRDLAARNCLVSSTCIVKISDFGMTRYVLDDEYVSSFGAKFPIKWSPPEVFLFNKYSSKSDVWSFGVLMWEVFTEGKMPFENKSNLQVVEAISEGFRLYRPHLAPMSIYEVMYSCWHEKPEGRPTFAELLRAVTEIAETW

[5] = target: Receptor tyrosine-protein kinase erbB-4 (Homo sapiens) (UniProt Q15303); assay: Inhibition of ERBB4 (unknown origin) at 1 uM relative to control
[6] = target: Tyrosine-protein kinase Lck (Homo sapiens) (UniProt P06239); assay: Inhibition of LCK (unknown origin) at 1 uM relative to control
[7] = target: Protein-tyrosine kinase 6 (Homo sapiens) (UniProt Q13882); assay: Inhibition of BRK (unknown origin) at 1 uM relative to control
[8] = target: Tyrosine-protein kinase Fgr (Homo sapiens) (UniProt P09769); assay: Inhibition of FGR (unknown origin) at 1 uM relative to control
[9] = target: Tyrosine-protein kinase Tec (Homo sapiens) (UniProt P42680); assay: Inhibition of TEC (unknown origin) at 1 uM relative to control
Chain of Tyrosine-protein kinase Tec (Homo sapiens) (P42680 whole entry, looked up): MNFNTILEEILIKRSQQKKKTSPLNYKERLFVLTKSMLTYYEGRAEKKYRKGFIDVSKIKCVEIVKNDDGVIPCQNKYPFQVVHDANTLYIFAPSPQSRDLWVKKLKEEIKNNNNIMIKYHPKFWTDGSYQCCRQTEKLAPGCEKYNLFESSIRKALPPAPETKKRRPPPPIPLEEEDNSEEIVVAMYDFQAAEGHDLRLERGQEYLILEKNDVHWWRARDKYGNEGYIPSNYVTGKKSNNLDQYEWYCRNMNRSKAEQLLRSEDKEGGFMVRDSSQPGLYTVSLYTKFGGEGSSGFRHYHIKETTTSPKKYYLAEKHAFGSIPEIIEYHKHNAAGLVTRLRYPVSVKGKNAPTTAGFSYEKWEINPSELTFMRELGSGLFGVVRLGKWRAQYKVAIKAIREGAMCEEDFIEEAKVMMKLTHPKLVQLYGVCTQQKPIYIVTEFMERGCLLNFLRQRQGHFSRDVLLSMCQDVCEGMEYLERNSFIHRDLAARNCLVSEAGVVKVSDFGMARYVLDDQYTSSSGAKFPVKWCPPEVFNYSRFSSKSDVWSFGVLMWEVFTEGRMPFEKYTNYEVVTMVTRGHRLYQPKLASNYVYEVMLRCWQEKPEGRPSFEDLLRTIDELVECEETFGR

Chain of Tyrosine-protein kinase BTK (Homo sapiens) (Q06187 whole entry): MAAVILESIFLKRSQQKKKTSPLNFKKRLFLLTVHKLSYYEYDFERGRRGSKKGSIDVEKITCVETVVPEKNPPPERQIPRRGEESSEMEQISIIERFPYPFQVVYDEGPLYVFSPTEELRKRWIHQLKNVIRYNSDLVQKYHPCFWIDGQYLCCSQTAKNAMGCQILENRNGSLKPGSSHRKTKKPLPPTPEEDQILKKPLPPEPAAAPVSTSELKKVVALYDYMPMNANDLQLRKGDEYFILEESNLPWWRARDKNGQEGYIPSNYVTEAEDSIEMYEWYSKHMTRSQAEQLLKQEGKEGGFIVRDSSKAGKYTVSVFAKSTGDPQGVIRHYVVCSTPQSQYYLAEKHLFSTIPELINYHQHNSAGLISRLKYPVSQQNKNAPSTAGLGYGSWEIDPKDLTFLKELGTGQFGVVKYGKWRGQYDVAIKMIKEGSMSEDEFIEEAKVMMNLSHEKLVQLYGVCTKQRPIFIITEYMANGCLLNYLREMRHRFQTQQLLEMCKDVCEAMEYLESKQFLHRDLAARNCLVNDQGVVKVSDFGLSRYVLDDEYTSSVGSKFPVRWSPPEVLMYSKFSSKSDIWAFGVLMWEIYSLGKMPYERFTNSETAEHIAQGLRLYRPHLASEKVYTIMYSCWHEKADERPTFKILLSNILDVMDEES
Chain of Receptor tyrosine-protein kinase erbB-4 (Homo sapiens) (Q15303 whole entry): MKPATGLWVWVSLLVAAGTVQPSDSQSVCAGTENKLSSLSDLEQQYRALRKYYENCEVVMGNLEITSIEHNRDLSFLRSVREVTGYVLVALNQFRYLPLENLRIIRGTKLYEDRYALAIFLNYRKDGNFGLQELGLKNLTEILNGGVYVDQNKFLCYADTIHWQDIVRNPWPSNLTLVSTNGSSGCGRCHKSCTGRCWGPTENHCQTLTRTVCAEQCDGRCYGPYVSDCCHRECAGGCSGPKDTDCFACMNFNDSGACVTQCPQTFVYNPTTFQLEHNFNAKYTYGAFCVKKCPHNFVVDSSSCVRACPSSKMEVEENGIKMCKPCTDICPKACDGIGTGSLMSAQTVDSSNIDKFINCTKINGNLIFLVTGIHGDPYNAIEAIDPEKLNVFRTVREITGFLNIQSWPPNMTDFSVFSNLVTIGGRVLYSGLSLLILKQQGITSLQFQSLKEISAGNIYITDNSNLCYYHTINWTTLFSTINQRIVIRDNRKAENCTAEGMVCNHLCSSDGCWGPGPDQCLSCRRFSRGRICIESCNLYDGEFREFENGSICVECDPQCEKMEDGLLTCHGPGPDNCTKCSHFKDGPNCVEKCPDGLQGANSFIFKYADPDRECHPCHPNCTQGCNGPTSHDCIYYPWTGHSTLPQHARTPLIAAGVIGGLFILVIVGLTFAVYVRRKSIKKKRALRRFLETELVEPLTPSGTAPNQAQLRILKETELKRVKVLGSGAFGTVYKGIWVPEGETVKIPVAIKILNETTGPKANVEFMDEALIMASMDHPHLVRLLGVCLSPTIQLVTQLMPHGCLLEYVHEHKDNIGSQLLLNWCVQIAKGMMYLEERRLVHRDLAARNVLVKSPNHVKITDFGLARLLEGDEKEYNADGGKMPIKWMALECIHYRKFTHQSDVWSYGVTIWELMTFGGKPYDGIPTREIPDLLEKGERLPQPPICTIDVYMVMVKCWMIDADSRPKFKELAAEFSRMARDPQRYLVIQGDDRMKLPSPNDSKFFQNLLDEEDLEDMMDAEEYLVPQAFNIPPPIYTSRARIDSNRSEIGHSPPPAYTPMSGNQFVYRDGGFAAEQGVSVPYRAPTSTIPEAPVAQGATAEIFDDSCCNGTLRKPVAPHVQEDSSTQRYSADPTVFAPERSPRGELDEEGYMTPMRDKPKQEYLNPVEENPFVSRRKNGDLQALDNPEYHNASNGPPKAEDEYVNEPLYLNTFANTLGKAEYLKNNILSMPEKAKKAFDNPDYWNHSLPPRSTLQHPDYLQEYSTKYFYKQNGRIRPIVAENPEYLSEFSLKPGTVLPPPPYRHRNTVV
Chain of Tyrosine-protein kinase Blk (Homo sapiens) (P51451 2-505 limits assumed): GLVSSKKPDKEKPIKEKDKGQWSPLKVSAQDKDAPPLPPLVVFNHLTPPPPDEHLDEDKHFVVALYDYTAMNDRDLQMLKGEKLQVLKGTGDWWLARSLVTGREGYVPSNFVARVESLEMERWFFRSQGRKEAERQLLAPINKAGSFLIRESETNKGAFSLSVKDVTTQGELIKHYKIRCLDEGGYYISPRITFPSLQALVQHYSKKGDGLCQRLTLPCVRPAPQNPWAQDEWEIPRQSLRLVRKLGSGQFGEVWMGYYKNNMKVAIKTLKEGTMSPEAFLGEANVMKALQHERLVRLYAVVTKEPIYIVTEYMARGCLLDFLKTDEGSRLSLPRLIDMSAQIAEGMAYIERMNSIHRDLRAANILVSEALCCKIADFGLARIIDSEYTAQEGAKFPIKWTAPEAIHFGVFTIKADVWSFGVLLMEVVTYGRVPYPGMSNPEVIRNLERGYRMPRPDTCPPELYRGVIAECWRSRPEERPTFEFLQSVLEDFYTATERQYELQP
Chain of Tyrosine-protein kinase Fgr (Homo sapiens) (P09769 2-529 limits assumed): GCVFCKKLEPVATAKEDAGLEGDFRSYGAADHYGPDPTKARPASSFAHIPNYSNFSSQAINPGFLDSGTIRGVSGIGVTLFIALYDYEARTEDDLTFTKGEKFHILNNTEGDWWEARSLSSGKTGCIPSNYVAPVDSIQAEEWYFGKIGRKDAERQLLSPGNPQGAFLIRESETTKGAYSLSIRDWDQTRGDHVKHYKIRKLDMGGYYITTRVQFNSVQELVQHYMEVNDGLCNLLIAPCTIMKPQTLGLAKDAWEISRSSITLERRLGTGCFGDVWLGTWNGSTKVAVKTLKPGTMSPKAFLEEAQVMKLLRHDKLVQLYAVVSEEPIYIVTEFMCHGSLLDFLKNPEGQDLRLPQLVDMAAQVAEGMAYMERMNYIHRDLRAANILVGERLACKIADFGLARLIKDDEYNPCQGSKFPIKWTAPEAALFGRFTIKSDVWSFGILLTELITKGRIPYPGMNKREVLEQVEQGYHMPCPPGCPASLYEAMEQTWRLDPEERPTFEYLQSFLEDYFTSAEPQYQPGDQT
Chain of Tyrosine-protein kinase Lck (Homo sapiens) (P06239 2-509 limits assumed): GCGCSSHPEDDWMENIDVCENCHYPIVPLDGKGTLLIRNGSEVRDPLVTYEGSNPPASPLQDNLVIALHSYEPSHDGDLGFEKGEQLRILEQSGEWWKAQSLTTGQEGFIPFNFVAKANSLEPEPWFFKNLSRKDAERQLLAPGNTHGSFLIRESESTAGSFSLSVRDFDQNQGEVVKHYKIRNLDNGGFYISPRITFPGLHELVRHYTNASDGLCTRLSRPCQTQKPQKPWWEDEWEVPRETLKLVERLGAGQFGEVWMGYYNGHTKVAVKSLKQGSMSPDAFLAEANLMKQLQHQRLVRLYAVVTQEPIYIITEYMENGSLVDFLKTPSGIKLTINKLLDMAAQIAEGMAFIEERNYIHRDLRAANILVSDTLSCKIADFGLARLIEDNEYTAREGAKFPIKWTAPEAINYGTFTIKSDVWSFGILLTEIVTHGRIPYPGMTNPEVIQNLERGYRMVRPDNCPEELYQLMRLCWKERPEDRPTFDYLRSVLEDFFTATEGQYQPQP
Chain of Protein-tyrosine kinase 6 (Homo sapiens) (Q13882 whole entry, looked up): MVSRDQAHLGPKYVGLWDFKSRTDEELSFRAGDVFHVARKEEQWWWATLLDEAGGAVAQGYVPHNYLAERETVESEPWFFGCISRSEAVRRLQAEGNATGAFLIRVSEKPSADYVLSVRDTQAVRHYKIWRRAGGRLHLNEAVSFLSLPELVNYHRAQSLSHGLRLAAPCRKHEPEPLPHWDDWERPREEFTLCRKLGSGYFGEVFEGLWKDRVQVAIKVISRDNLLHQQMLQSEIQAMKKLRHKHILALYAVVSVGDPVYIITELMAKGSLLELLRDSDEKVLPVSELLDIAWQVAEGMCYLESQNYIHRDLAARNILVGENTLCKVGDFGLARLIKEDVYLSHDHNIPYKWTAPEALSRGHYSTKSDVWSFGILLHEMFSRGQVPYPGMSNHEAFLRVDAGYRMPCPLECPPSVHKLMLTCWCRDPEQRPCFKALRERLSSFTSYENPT

Row | inhibition [1] | inhibition [2] | inhibition [3] | inhibition [4] | inhibition [5] | inhibition [6] | inhibition [7] | inhibition [8] | inhibition [9] | SMILES
1 | Active | 10% | 10% | 10% | 10% | 50% | 50% | 50% | 10% | C=CC(=O)N1CCC[C@H](n2nc(-c3c(C)cc(Oc4ccccc4)cc3C)c3c(N)ncnc32)C1
2 | Active |  |  |  |  |  |  |  |  | C=CC(=O)N1CCC[C@H](n2nc(-c3ccc(Oc4ccccc4)cc3C)c3c(N)ncnc32)C1
